How the values were obtained:
[1] = molecular target: T1, JAK3 enzyme (Homo sapiens, UniProt P52333); test: JAK Caliper Enzyme Assay at 4 μM ATP; format: biochemical
T1 sequence (P52333 1-1124): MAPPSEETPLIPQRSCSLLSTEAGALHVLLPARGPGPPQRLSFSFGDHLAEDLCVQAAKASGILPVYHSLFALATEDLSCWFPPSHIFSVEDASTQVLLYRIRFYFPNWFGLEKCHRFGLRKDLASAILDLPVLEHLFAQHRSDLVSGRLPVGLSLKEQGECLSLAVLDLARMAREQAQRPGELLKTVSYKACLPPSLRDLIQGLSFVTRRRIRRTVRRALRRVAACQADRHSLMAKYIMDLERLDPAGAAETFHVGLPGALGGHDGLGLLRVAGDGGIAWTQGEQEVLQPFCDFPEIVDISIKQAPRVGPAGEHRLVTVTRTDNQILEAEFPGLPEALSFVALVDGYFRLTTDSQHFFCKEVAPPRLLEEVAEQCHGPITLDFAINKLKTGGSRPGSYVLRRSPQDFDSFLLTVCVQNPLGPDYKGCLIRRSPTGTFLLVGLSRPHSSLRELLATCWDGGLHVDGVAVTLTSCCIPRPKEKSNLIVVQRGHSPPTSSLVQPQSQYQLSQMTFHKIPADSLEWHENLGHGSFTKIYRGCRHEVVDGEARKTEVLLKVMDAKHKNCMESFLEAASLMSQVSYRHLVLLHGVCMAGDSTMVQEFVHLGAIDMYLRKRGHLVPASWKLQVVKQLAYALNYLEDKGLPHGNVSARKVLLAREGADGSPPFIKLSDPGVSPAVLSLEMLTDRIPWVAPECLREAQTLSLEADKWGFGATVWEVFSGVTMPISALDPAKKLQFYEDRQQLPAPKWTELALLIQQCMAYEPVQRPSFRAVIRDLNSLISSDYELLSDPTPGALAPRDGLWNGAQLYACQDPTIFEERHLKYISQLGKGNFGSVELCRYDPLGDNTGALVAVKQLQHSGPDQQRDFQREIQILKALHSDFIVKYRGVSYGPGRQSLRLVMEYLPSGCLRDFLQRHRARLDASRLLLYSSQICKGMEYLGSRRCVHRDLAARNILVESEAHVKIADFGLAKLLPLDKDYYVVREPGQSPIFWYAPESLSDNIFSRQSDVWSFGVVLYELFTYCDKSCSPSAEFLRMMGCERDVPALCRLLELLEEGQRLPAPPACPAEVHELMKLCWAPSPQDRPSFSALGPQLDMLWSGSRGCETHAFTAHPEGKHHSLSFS
In short: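 Read-out: microfluidic mobility-shift separation quantifying substrate peptide versus phosphopeptide. Compounds were tested as 11-point half-log dilutions, top 600 μM in DMSO before transfer. Enzyme level and reaction time were tuned for each prep so conversion stayed at 20%-30%.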

[2] = system: IL-15 induced STAT5 phosphorylation in human whole blood lymphocytes; test: HWB IL-15 Induced STAT5 Phosphorylation Assay; format: cell-based; conditions: Lymphocyte, IL-15 final 50 ng/ml, read-out: HWB_IL15 pSTAT5 IC50
In short: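 Heparinised human whole blood preincubated with compound (0.2% DMSO final) 45 min at 37° C, then stimulated with human IL-15 (50 ng/ml final) for 15 min. After lyse/fix and Perm Buffer III permeabilisation, stained overnight at 4° C with AlexaFluor647 anti-phospho-STAT5; read by flow cytometry gated on total lymphocytes.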

[3] = Stability of JAK3 Covalent Inhibitors in Human Whole Blood; format: in vitro ADME; conditions: both sexes, 1 μM test compound, 37° C., 180 min incubation, read-out: Human blood stability t1/2
In short: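 Parent remaining versus time was derived from LC-MS/MS peak area ratios to internal standard after acetonitrile quench. Incubations ran for 180 min at 37° C, in duplicate, with 1 μM test compound in pooled K2-EDTA human blood (two healthy donors).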

Structure (SMILES) | IC50 [1] | IC50 [2] | half-life at 1 μM [3]
C=CC(=O)N(C)C1CN(c2cnc3[nH]cc(C(=O)N[C@H](C)COC)c3n2)C1 [Example 86, 2-{3-[acryloyl(methyl)amino]azetidin-1-yl}-N-[(2R)-1-methoxypropan-2-yl]-5H-pyrrolo[2,3-b]pyrazine-7-carboxamide] | 0.000515 µM | 2.92 µM | 1.67 h
C=CC(=O)N1CC[C@@H](Oc2cnc3[nH]cc(C(=O)NCC)c3n2)C[C@@H]1C (racemic) [Example 77, Trans-racemic-2-{[1-acryloyl-2-methylpiperidin-4-yl]oxy}-N-ethyl-5H-pyrrolo[2,3-b]pyrazine-7-carboxamide] | 0.000702 µM | 2.45 µM | > 5.34 h
C=CC(=O)N1CC[C@@H](Nc2cnc3[nH]cc(C(=O)NCC)c3n2)C[C@@H]1C (single isomer, unassigned) [Example 42] | 0.0004 µM | 1.06 µM | 4.68 h
C=CC(=O)N1CC[C@H](Nc2cnc3[nH]cc(C(=O)NCCCC(F)(F)F)c3n2)[C@H](OC)C1 [Example 319, 2-{[(3R,4S)-1-acryloyl-3-methoxypiperidin-4-yl]amino}-N-(4,4,4-trifluorobutyl)-5H-pyrrolo[2,3-b]pyrazine-7-carboxamide] | 0.000404 µM | 0.396 µM | 5.57 h
C=CC(=O)N1CCN(c2cnc3[nH]cc(C(=O)N[C@@H](C)COC)c3n2)CC1 [Example 295, 2-(4-acryloylpiperazin-1-yl)-N-[(2S)-1-methoxypropan-2-yl]-5H-pyrrolo[2,3-b]pyrazine-7-carboxamide] | 0.000179 µM | 0.199 µM | 2.22 h
C=CC(=O)N1CC(CF)CC(Nc2ncnc3[nH]ccc23)C1 (mixture of isomers) [Example 102, Cis-racemic-1-[3-(fluoromethyl-5-(7H-pyrrolo[2,3-d]pyrimidin-4-ylamino)piperidin-1-yl]prop-2-en-1-one] | 0.0019 µM | 1.53 µM | 2.02 h
C=CC(=O)N1CCC(Oc2cnc3[nH]cc(C(=O)N[C@@H](C)CC)c3n2)CC1 [Example 205, 2-[(1-acryloylpiperidin-4-yl)oxy]-N-[(2S)-butan-2-yl]-5H-pyrrolo[2,3-b]pyrazine-7-carboxamide] | 0.000138 µM | 0.513 µM | 4.17 h
C=CC(=O)N1CC[C@@H](Nc2cnc3[nH]cc(C(=O)N[C@H](C)COC)c3n2)[C@@H](OC)C1 [Example 331, 2-{[(3S,4R)-1-acryloyl-3-methoxypiperidin-4-yl]amino}-N-[(2R)-1-methoxypropan-2-yl]-5H-pyrrolo[2,3-b]pyrazine-7-carboxamide] | 0.000313 µM | 0.263 µM | 5.52 h
C=CC(=O)N1CC[C@@H](Oc2cnc3[nH]cc(C(=O)NCC)c3n2)[C@H](C)C1 (single isomer, unassigned) [Example 47] | 0.00118 µM | 3.58 µM | 1.8 h
C=CC(=O)N1CCC(Nc2cnc3[nH]cc(C(=O)NCc4ccc(F)c(C#N)c4)c3n2)CC1 [Example 189, 2-[(1-acryloylpiperidin-4-yl)amino]-N-(3-cyano-4-fluorobenzyl)-5H-pyrrolo[2,3-b]pyrazine-7-carboxamide] | 0.000689 µM | 1.14 µM | > 6 h
C=CC(=O)N1CCC(Oc2cnc3[nH]cc(C(=O)N[C@@H]4CCC[C@H]4F)c3n2)CC1 [Example 229, 2-[(1-acryloylpiperidin-4-yl)oxy]-N-[(1R,2R)-2-fluorocyclopentyl]-5H-pyrrolo[2,3-b]pyrazine-7-carboxamide] | 0.000582 µM | 2.39 µM | 5.93 h
C=CC(=O)N1CCC(C)(Nc2cnc3[nH]cc(C(=O)NC4CCC4)c3n2)CC1 [Example 324, 2-[(1-acryloyl-4-methylpiperidin-4-yl)amino]-N-cyclobutyl-5H-pyrrolo[2,3-b]pyrazine-7-carboxamide] | 0.000418 µM | 1.27 µM | 4.3 h
C=CC(=O)N1CCC(Oc2cnc3[nH]cc(C(=O)NC4CCCC4(F)F)c3n2)CC1 (stereo not drawn) [Example 219, 2-[(1-acryloylpiperidin-4-yl)oxy]-N-(2,2-difluorocyclopentyl)-5H-pyrrolo[2,3-b)pyrazine-7-carboxamide] | 0.000363 µM | 0.889 µM | 4.05 h
C=CC(=O)N1CC[C@H](Nc2cnc3[nH]cc(C(=O)NCC(F)(F)F)c3n2)[C@H](OC)C1 [Example 293, 2-{[(3R,4S)-1-acryloyl-3-methoxypiperidin-4-yl]amino}-N-(2,2,2-trifluoroethyl)-5H-pyrrolo[2,3-b]pyrazine-7-carboxamide] | 0.00068 µM | 0.818 µM | 3.4 h
C=CC(=O)N1CCN(c2cnc3[nH]cc(C(=O)NCC(C)C)c3n2)C[C@@H]1CC(C)C [Example 288, 2-[(3S)-4-acryloyl-3-(2-methylpropyl)piperazin-1-yl]-N-(2-methylpropyl)-5H-pyrrolo[2,3-b]pyrazine-7-carboxamide] | 0.000376 µM | 2.16 µM | > 6 h
C=CC(=O)N1CCC(Oc2cnc3[nH]cc(C(=O)NC45CC(C4)C5)c3n2)CC1 [Example 200, 2-[(1-acryloylpiperidin-4-yl)oxy]-N-(bicyclo[1.1.1]pent-1-yl)-5H-pyrrolo[2,3-b]pyrazine-7-carboxamide] | 0.000411 µM | 1.52 µM | > 6 h
C=CC(=O)N1CCC(Oc2cnc3[nH]cc(C(=O)N[C@H](C)COC)c3n2)CC1 [Example 214, 2-[(1-acryloylpiperidin-4-yl)oxy]-N-[(2R)-1-methoxypropan-2-yl]-5H-pyrrolo[2,3-b]pyrazine-7-carboxamide] | 0.000209 µM | 0.195 µM | 4.79 h
C=CC(=O)N1CC[C@@H](Oc2cnc3[nH]cc(C(=O)N[C@@H](C)COC)c3n2)C[C@@H]1C (racemic) [Example 71, Trans-racemic-2-{[1-acryloyl-2-methylpiperidin-4-yl]oxy}-N-[(2S)-1-methoxypropan-2-yl]-5H-pyrrolo[2,3-b]pyrazine-7-carboxamide] | 0.00113 µM | 0.931 µM | 5.15 h
C=CC(=O)N1CCC(N(C)c2cnc3[nH]cc(C(=O)NC(C)C)c3n2)CC1 [Example 64, 2-[(1-acryloylpiperidin-4-yl)(methyl)amino]-N-(propan-2-yl)-5H-pyrrolo[2,3-b]pyrazine-7-carboxamide] | 0.000408 µM | 3.13 µM | 4.42 h
C=CC(=O)N1CCN(c2cnc3[nH]cc(C(=O)N[C@H](C)COC)c3n2)CC1 [Example 332] | 0.000262 µM | 0.221 µM | 2.42 h
C=CC(=O)N1CCC(Nc2cnc3[nH]cc(C(=O)NCCC4CC4)c3n2)CC1 [Example 178, 2-[(1-acryloylpiperidin-4-yl)amino]-N-(2-cyclopropylethyl)-5H-pyrrolo[2,3-b]pyrazine-7-carboxamide] | 0.000442 µM | 0.36 µM | 5.57 h
C=CC(=O)N1C[C@H](Nc2ncnc3[nH]ccc23)CC[C@@H]1CNC(C)=O (racemic) [Example 88, rac-N-(((2R,5R)-5-((7H-pyrrolo[2,3-d]pyrimidin-4-yl)amino)-1-acryloylpiperidin-2-yl)methyl)acetamide] | 0.0015 µM | 5.05 µM | > 6 h
C=CC(=O)N1CCN(c2cnc3[nH]cc(C(=O)N[C@H](C)COC)c3n2)CC1(C)C [Example 327] | 0.000546 µM | 1.04 µM | > 6 h

— US10703756B2, “Pyrrolo[2,3-D]pyrimidinyl, pyrrolo[2,3-B]pyrazinyl, pyrrolo[2,3-B]pyridinyl acrylamides and epoxides thereof” (Pfizer Inc., priority 2015, dated 2020)
